According to the supplement of paper PMC10307832:

How the values were obtained:
Test in all cases: relative viability (nuclei count vs DMSO), 5 days (fraction); higher = more cells survive
COR-L 105 = test system: COR-L 105
Procedure, shortened: (§1)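 Relative viability divides the nuclei count in treated wells by that in vehicle wells. Lung cancer cell lines were seeded in 1536-well plates, dosed by pin tool the next day, and fixed and stained after 5 days in one step with final 0.05% Triton X-100, 1% formaldehyde and 1 ug/ml Hoechst. Dosing was a single drug or a fixed anchor-drug dose plus five library-drug doses (not always all listed) in √10 steps, and values are medians of duplicate plates imaged at 4×.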

COR-L23 = test system: COR-L23
Procedure, shortened: as §1

EKVX = test system: EKVX
Procedure, shortened: as §1

HARA = test system: HARA
Procedure, shortened: as §1

HOP-62 = test system: HOP-62
Procedure, shortened: as §1

NCI-H1355 = test system: NCI-H1355
Procedure, shortened: as §1

NCI-H1395 = test system: NCI-H1395
Procedure, shortened: as §1

NCI-H1734 = test system: NCI-H1734
Procedure, shortened: as §1

NCI-H1755 = test system: NCI-H1755
Procedure, shortened: as §1

NCI-H1793 = test system: NCI-H1793
Procedure, shortened: as §1

NCI-H1993 = test system: NCI-H1993
Procedure, shortened: as §1

NCI-H2009 = test system: NCI-H2009
Procedure, shortened: as §1

NCI-H2170 = test system: NCI-H2170
Procedure, shortened: as §1

NCI-H2228 = test system: NCI-H2228
Procedure, shortened: as §1

NCI-H2342 = test system: NCI-H2342
Procedure, shortened: as §1

NCI-H2347 = test system: NCI-H2347
Procedure, shortened: as §1

NCI-H322M = test system: NCI-H322M
Procedure, shortened: as §1

NCI-H358 = test system: NCI-H358
Procedure, shortened: as §1

NCI-H522 = test system: NCI-H522
Procedure, shortened: as §1

NCI-H647 = test system: NCI-H647
Procedure, shortened: as §1

NCI-H838 = test system: NCI-H838
Procedure, shortened: as §1

PC-14 = test system: PC-14
Procedure, shortened: as §1

SK-MES-1 = test system: SK-MES-1
Procedure, shortened: as §1

UMC-11 = test system: UMC-11
Procedure, shortened: as §1

Structure (SMILES): CC(C)Oc1cc(Nc2nc(N[C@@H](C)c3ccc(F)cn3)ncc2Cl)n[nH]1 [AZ23] + CC(=O)c1c(C)c2cnc(Nc3ccc(N4CCNCC4)cn3)nc2n(C2CCCC2)c1=O [Palbociclib] (partner 0.5 µM)
- relative viability (COR-L 105; first compound 0.01 µM): 0.53
- relative viability (COR-L 105; first compound 0.03162 µM): 0.463
- relative viability (COR-L 105; first compound 0.3162 µM): 0.396
- relative viability (COR-L23; first compound 0.01 µM): 0.239
- relative viability (COR-L23; first compound 0.03162 µM): 0.301
- relative viability (COR-L23; first compound 0.3162 µM): 0.254
- relative viability (EKVX; first compound 0.01 µM): 0.392
- relative viability (EKVX; first compound 0.03162 µM): 0.414
- relative viability (EKVX; first compound 0.3162 µM): 0.358
- relative viability (HARA; first compound 0.01 µM): 0.254
- relative viability (HARA; first compound 0.03162 µM): 0.156
- relative viability (HARA; first compound 0.3162 µM): 0.213
- relative viability (HOP-62; first compound 0.01 µM): 0.507
- relative viability (HOP-62; first compound 0.03162 µM): 0.467
- relative viability (HOP-62; first compound 0.3162 µM): 0.437
- relative viability (NCI-H1355; first compound 0.01 µM): 0.437
- relative viability (NCI-H1355; first compound 0.03162 µM): 0.455
- relative viability (NCI-H1355; first compound 0.3162 µM): 0.375
- relative viability (NCI-H1395; first compound 0.03162 µM): 0.694
- relative viability (NCI-H1395; first compound 0.3162 µM): 0.641
- relative viability (NCI-H1734; first compound 0.01 µM): 0.317
- relative viability (NCI-H1734; first compound 0.03162 µM): 0.366
- relative viability (NCI-H1734; first compound 0.3162 µM): 0.359
- relative viability (NCI-H1755; first compound 0.01 µM): 0.472
- relative viability (NCI-H1755; first compound 0.03162 µM): 0.488
- relative viability (NCI-H1755; first compound 0.3162 µM): 0.49
- relative viability (NCI-H1793; first compound 0.01 µM): 0.347
- relative viability (NCI-H1793; first compound 0.03162 µM): 0.35
- relative viability (NCI-H1793; first compound 0.3162 µM): 0.247
- relative viability (NCI-H1993; first compound 0.01 µM): 0.559
- relative viability (NCI-H1993; first compound 0.03162 µM): 0.695
- relative viability (NCI-H1993; first compound 0.3162 µM): 0.477
- relative viability (NCI-H2009; first compound 0.01 µM): 0.2
- relative viability (NCI-H2009; first compound 0.03162 µM): 0.185
- relative viability (NCI-H2009; first compound 0.3162 µM): 0.196
- relative viability (NCI-H2170; first compound 0.01 µM): 0.451
- relative viability (NCI-H2170; first compound 0.03162 µM): 0.645
- relative viability (NCI-H2170; first compound 0.3162 µM): 0.473
- relative viability (NCI-H2228; first compound 0.01 µM): 0.809
- relative viability (NCI-H2228; first compound 0.03162 µM): 0.811
- relative viability (NCI-H2228; first compound 0.3162 µM): 0.907
- relative viability (NCI-H2342; first compound 0.01 µM): 0.516
- relative viability (NCI-H2342; first compound 0.03162 µM): 0.511
- relative viability (NCI-H2342; first compound 0.3162 µM): 0.509
- relative viability (NCI-H2347; first compound 0.01 µM): 0.441
- relative viability (NCI-H2347; first compound 0.03162 µM): 0.418
- relative viability (NCI-H2347; first compound 0.3162 µM): 0.398
- relative viability (NCI-H322M; first compound 0.01 µM): 0.446
- relative viability (NCI-H322M; first compound 0.03162 µM): 0.472
- relative viability (NCI-H322M; first compound 0.3162 µM): 0.485
- relative viability (NCI-H358; first compound 0.01 µM): 0.129
- relative viability (NCI-H358; first compound 0.03162 µM): 0.141
- relative viability (NCI-H358; first compound 0.3162 µM): 0.13
- relative viability (NCI-H522; first compound 0.01 µM): 1.2
- relative viability (NCI-H522; first compound 0.03162 µM): 1.01
- relative viability (NCI-H522; first compound 0.3162 µM): 0.795
- relative viability (NCI-H647; first compound 0.01 µM): 0.408
- relative viability (NCI-H647; first compound 0.03162 µM): 0.405
- relative viability (NCI-H647; first compound 0.3162 µM): 0.466
- relative viability (NCI-H838; first compound 0.01 µM): 0.227
- relative viability (NCI-H838; first compound 0.03162 µM): 0.23
- relative viability (NCI-H838; first compound 0.3162 µM): 0.247
- relative viability (PC-14; first compound 0.01 µM): 0.492
- relative viability (PC-14; first compound 0.03162 µM): 0.567
- relative viability (PC-14; first compound 0.3162 µM): 0.577
- relative viability (SK-MES-1; first compound 0.03162 µM): 0.291
- relative viability (SK-MES-1; first compound 0.3162 µM): 0.328
- relative viability (UMC-11; first compound 0.01 µM): 0.341
- relative viability (UMC-11; first compound 0.03162 µM): 0.338
- relative viability (UMC-11; first compound 0.3162 µM): 0.353
